Consider nine compounds from patent publication US6224849A, “Alkylaminobenzothiazole and-benzoxazole derivatives” (Janssen Pharmaceutica N.V., priority 1996, dated 2001).

For the assay, the target named is T1, cloned human D4 receptors (Homo sapiens, UniProt P21917).
T1 construct: purchased Receptor Biology, Maryland, USA; host or cells: transfected Chinese Hamster Ovary (CHO) cells (membrane preparation)
T1 sequence (P21917 1-419): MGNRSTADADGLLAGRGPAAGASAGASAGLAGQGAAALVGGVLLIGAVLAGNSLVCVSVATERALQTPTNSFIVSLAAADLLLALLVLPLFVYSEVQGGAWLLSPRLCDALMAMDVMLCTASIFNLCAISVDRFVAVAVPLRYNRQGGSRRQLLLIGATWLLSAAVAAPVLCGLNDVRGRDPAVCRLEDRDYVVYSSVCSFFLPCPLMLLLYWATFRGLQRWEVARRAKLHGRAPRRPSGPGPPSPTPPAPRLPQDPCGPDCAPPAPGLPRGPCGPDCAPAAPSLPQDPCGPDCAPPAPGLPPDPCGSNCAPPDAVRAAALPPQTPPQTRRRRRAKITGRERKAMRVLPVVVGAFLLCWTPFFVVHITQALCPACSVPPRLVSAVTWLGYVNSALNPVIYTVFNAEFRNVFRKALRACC
The experiment in a line: In vitro radioligand binding affinity for dopamine D4 receptor (3H-spiperone competition, transfected CHO cell membranes). As to conditions: membranes of transfected CHO cells expressing cloned human D4 receptors, read-out: pIC50 (-log IC50), dopamine D4 receptor (converted). As for the experimental part: In vitro binding affinity for dopamine D4 receptor
The interaction of the compounds of formula (I) with the dopamine D4 receptors was assessed in in vitro radioligand binding experiments.
A low concentration of ^3 H-spiperone with a high binding affinity for the dopamine D4 receptor was incubated with a sample of a membrane preparation of transfected Chinese Hamster Ovary (CHO) cells which express cloned human D4 receptors (Receptor Biology, Maryland, USA) in a buffered medium. When equilibrium of binding was reached, the receptor bound radioactivity was separated from the non-bound radioactivity, and the receptor bound activity was counted. The interaction of the test compounds, added to the incubation mixture in various concentrations, with the dopamine D4 receptor was assessed in competition binding experiments as described by Schotte et al. (Psychopharmacology, 1996, 124, 57-73).

Molecules are shown by their SMILES.

As a reminder, the IC50 is the point on the concentration scale where inhibition reaches its midpoint. As for `c1ccc(N2CCN(CCNc3nc4ccccc4s3)CC2)cc1` [Compound 6, N-[2-(4-phenyl-1-piperazinyl)ethyl]-2-benzothiazolamine], the IC50 is at most 100 nM.
With `COc1ccc(N2CCN(CCNc3nc4ccccc4s3)CC2)cc1` [Compound 21], the IC50 was at most 100 nM.
`COc1ccc(N2CCN(CCNc3nc4ccccc4s3)CC2)cc1OC` [Compound 23]: the IC50 is at most 100 nM.
For `Fc1ccc(N2CCN(CCCNc3nc4ccccc4s3)CC2)cc1` [Compound 25] the value was at most 100 nM; for `CN(CCCN1CCN(c2ccc(Cl)c(Cl)c2)CC1)c1nc2ccccc2s1` [Compound 100], at most 100 nM; for `CN(CCN1CCN(c2ccc(Cl)c(Cl)c2)CC1)c1nc2ccccc2s1` [Compound 101], at most 100 nM.
For `Clc1ccc(N2CCN(CCN(Cc3ccccc3)c3nc4ccccc4s3)CC2)cc1Cl` [Compound 106] the value was at most 100 nM; for `c1ccc2c(N3CCN(CCNc4nc5ccccc5s4)CC3)cccc2c1` [Compound 119], at most 100 nM.
The figure for `Clc1ccc(N2CCN(CCNc3nc4ccccc4s3)CC2)cc1` [Compound 134] is at most 100 nM.
